Source: patent US11697650B2, “Compounds having tetrahydroindolizine-1-carboxamide as BCL-2 inhibitors” (Eil Therapeutics, Inc., priority 2021, dated 2023)

Assays:
[1] = system: RS4-11 cells; assay: Cell viability assay (CellTiter-Glo), RS4-11; type: cell-based; conditions: Homo sapiens, 72 h, 3 days, read-out: RS4-11 (CC50 code)
Procedure: (§1) Culture medium for HEK293—DMEM (PanEco, Cat #C420) was used. RPMI-1640 (PanEco, Cat #C363) was used for the rest of the cell lines.
(§2) Compounds were prepared as 200× stocks with serial dilution in 100% DMSO with a final concentration of 1×.
(§3) […] were dispersed in 40 μL aliquots in 384-well plates at a concentration of 2000 cells per well for HEK293 and at a concentration of 4000 cells per well for the rest of the cell lines using a robotic station Biomek (Beckman). Before adding compounds, the cells were incubated at 37° C. (HEK293 were incubated for a day before adding compounds).
(§4) A dilution plate was prepared by pouring 78 μL of the appropriate culture medium using a robotic station Biomek (Beckman). Sequentially, using a robotic station, 2 μL of substances were taken and added to 78 μL of culture medium (dilution of compounds 40×). 10 μL aliquots were taken and added to the plates of the cells (dilution of compounds 5×). The plates were incubated for 3 days at a temperature 37° C. After 3 days, 10 μL of CellTiter-Glo (Promega) was added to the cells and the luminescence was measured.

[2] = biological target: BCL-2 (Homo sapiens (Human), UniProt P10415); assay: BCL-2 TR-FRET Assay (primary PPI inhibition); type: binding; conditions: 60 min incubation; read-out: BCL2 (IC50 code, BCL-2 TR-FRET)
Procedure: BCL-2 TR-FRET Assay (BPS Bioscience, #50222)
(§5) The following assay concentrations and times were used: 3 ng BCL-2, 5 μl of 1:100 anti-His Tb-labeled donor, 5 μl of 1:100 Dye-labeled acceptor, 5 μl of 1:40 BCL-2 Peptide Ligand, and 2 ul of test compound, with 60 min incubation time. The results of the assay were read using a Clariostar (BMG Labtech) plate reader with the following parameters: TR FRET, 340ex/620 and 665em; 60 μsec Delay; and 500 μsec integration.

[3] = biological target: BCL-XL (Homo sapiens (Human), UniProt Q07817); assay: BCL-XL TR-FRET Assay (primary PPI inhibition); type: binding; conditions: 60 min incubation; read-out: BCLxL (IC50 code, BCL-XL TR-FRET)
Procedure: BCL-XL TR-FRET Assay (BPS Bioscience, #50223)
as §5, with “used: 10.5” for “used: 3”, “ng BCL-XL,” for “ng BCL-2,”, “of 1:80 BCL-XL” for “of 1:40 BCL-2”, “2 μl” for “2 ul”

[4] = system: caspase-3 and -7 activities in RS4-11 cells; assay: Caspase-3/7 activation (Caspase-Glo 3/7) in RS4-11 cells; type: cell-based; conditions: Homo sapiens, 3.5 h incubation, read-out: Cas-3/7 (EC50 code)
Procedure: The Caspase-Glo 3/7 Assay is homogeneous, luminescent assay that measures caspase-3 and -7 activities. The assay provides a luminogenic caspase-3/7 substrate, which contains the tetrapeptide sequence DEVD, in a reagent optimized for caspase activity.
Incubate RS4-11 cells with varying concentrations of test compounds for 3.5 h in a humidified incubator at 37° C. and 5% CO2 and 30 min at r.t. Add 15 μl Caspase-Glo reagent to each well and incubate the plate for 30 min at r.t. Read on ClarioStar Plus instrument.
Promega Caspase-Glo (Promega, #8212); Frozen RS4-11 cells; 384-well white plate (Corning, #3570).
ClarioStar Plus; Biomek FX for liquid handling (Beckman Coulter).

[5] = system: MOLT-4 cells; assay: Cell viability assay (CellTiter-Glo), MOLT-4; type: cell-based; conditions: Homo sapiens, 72 h, 3 days, read-out: MOLT-4 (CC50 code)
Procedure: as §1, §2, §3, §4

[6] = Cell viability assay (CellTiter-Glo), HEK293; type: cell-based; conditions: human, HEK293 cells, read-out: HEK293 (CC50 code)
Procedure: as §1, §2, §3, §4

Sequence of BCL-XL (Q07817 whole entry): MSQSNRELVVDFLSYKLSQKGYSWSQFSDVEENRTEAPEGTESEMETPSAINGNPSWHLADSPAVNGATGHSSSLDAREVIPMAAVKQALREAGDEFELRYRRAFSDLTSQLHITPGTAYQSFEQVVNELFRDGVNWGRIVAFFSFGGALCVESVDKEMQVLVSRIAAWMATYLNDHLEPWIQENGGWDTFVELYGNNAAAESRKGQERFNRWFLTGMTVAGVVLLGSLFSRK
Sequence of BCL-2 (P10415 whole entry): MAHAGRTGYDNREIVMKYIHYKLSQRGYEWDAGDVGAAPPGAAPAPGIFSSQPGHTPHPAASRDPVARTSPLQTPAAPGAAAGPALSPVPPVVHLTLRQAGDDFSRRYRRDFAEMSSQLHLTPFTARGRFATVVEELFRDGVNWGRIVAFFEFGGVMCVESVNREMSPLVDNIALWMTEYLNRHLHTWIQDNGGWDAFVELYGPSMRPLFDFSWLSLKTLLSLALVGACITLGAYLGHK

Row | SMILES | CC50 [1] [nM] | IC50 [2] [nM] | IC50 [3] [nM] | EC50 [4] [nM] | CC50 [5] [nM] | CC50 at 3 days [6] [nM]
1 | O=C(c1cc(-c2cc3c(cc2C(=O)N2Cc4ccccc4C[C@H]2CN2CCOCC2)OCO3)n2c1CCCC2)N(Cc1ccccc1C(F)(F)F)c1ccc(O)cc1 [Compound 5, N-(4-hydroxyphenyl)-3-(6-{[(3S)-3-(morpholin-4-ylmethyl)-3,4-dihydroisoquinolin-2(1H)-yl]carbonyl}-1,3-benzodioxol-5-yl)-N-[2-(trifluoromethyl)benzyl]-5,6,7,8-tetrahydroindolizine-1-carboxamide] | ≤ 100 | ≤ 5 | ≤ 2000 | ≤ 100 | 2000 to 10000 | > 25000
2 | O=C(c1cc(-c2cc3c(cc2C(=O)N2Cc4ccccc4C[C@H]2CN2CCOCC2)OCO3)n2c1CCCC2)N(Cc1ccccc1Cl)c1ccc(O)cc1 [Compound 33, N-(2-chlorobenzyl)-N-(4-hydroxyphenyl)-3-(6-{[(3S)-3-(morpholin-4-ylmethyl)-3,4-dihydroisoquinolin-2(1H)-yl]carbonyl}-1,3-benzodioxol-5-yl)-5,6,7,8-tetrahydroindolizine-1-carboxamide] | ≤ 100 | ≤ 5 | ≤ 2000 | ≤ 100 | ≤ 2000 | 10000 to 25000
3 | O=C(c1cc(-c2cc3c(cc2C(=O)N2Cc4ccccc4C[C@H]2CN2CCOCC2)OCO3)n2c1CCCC2)N(Cc1ccccc1)c1ccc(O)cc1 [Compound 15, N-benzyl-N-(4-hydroxyphenyl)-3-(6-{[(3S)-3-(morpholin-4-ylmethyl)-3,4-dihydroisoquinolin-2(1H)-yl]carbonyl}-1,3-benzodioxol-5-yl)-5,6,7,8-tetrahydroindolizine-1-carboxamide] | 100 to 200 | 5 to 10 | ≤ 2000 | 100 to 250 | ≤ 2000 | > 25000
4 | Cn1cnnc1CN(C(=O)c1cc(-c2cc3c(cc2C(=O)N2Cc4ccccc4C[C@H]2CN2CCOCC2)OCO3)n2c1CCCC2)c1ccc(O)cc1 [Compound 48, N-(4-Hydroxyphenyl)-N-[(4-methyl-1,2,4-triazol-3-yl)methyl]-3-[6-[(3S)-3-(morpholinomethyl)-3,4-dihydro-1H-isoquinoline-2-carbonyl]-1,3-benzodioxol-5-yl]-5,6,7,8-tetrahydroindolizine-1-carboxamide] | ≤ 100 | ≤ 5 | ≤ 2000 | ≤ 100 | 2000 to 10000 | 10000 to 25000
5 | COc1cccc(CN(C(=O)c2cc(-c3cc4c(cc3C(=O)N3Cc5ccccc5C[C@H]3CN3CCOCC3)OCO4)n3c2CCCC3)c2ccc(O)cc2)c1C [Compound 3, N-(4-hydroxyphenyl)-N-(3-methoxy-2-methylbenzyl)-3-(6-{[(3S)-3-(morpholin-4-ylmethyl)-3,4-dihydroisoquinolin-2(1H)-yl]carbonyl}-1,3-benzodioxol-5-yl)-5,6,7,8-tetrahydroindolizine-1-carboxamide] | ≤ 100 | ≤ 5 | ≤ 2000 | ≤ 100 | ≤ 2000 | > 25000
6 | Cc1ccccc1CN(C(=O)c1cc(-c2cc3c(cc2C(=O)N2Cc4ccccc4C[C@H]2CN2CCOCC2)OCO3)n2c1CCCC2)c1ccc(O)cc1 [Compound 4, N-(4-hydroxyphenyl)-N-(2-methylbenzyl)-3-(6-{[(3S)-3-(morpholin-4-ylmethyl)-3,4-dihydroisoquinolin-2(1H)-yl]carbonyl}-1,3-benzodioxol-5-yl)-5,6,7,8-tetrahydroindolizine-1-carboxamide] | ≤ 100 | ≤ 5 | ≤ 2000 | ≤ 100 | > 10000 | > 25000
7 | O=C(c1cc(-c2cc3c(cc2C(=O)N2Cc4ccccc4C[C@H]2CN2CCOCC2)OCO3)n2c1CCCC2)N(Cc1cccc(C(F)(F)F)c1)c1ccc(O)cc1 [Compound 16, N-(4-hydroxyphenyl)-3-(6-{[(3S)-3-(morpholin-4-ylmethyl)-3,4-dihydroisoquinolin-2(1H)-yl]carbonyl}-1,3-benzodioxol-5-yl)-N-[3-(trifluoromethyl)benzyl]-5,6,7,8-tetrahydroindolizine-1-carboxamide] | 100 to 200 | 10 to 50 | > 4000 | 100 to 250 | > 10000 | > 25000
8 | O=C(c1cc(-c2cc3c(cc2C(=O)N2Cc4ccccc4C[C@H]2CN2CCOCC2)OCO3)n2c1CCCC2)N(Cc1ccncc1)c1ccc(O)cc1 [Compound 9, N-(4-hydroxyphenyl)-3-(6-{[(3S)-3-(morpholin-4-ylmethyl)-3,4-dihydroisoquinolin-2(1H)-yl]carbonyl}-1,3-benzodioxol-5-yl)-N-(pyridin-4-ylmethyl)-5,6,7,8-tetrahydroindolizine-1-carboxamide] | 100 to 200 | ≤ 5 | 2000 to 4000 | 100 to 250 | 2000 to 10000 | 10000 to 25000
9 | O=C(c1cc(-c2cc3c(cc2C(=O)N2Cc4ccccc4C[C@H]2CN2CCOCC2)OCO3)n2c1CCCC2)N(Cc1ccc(C(F)(F)F)cc1)c1ccc(O)cc1 [Compound 24, N-(4-hydroxyphenyl)-3-(6-{[(3S)-3-(morpholin-4-ylmethyl)-3,4-dihydroisoquinolin-2(1H)-yl]carbonyl}-1,3-benzodioxol-5-yl)-N-[4-(trifluoromethyl)benzyl]-5,6,7,8-tetrahydroindolizine-1-carboxamide] | > 200 | 10 to 50 | > 4000 | > 250 | 2000 to 10000 | ≤ 10000
10 | Cc1c(CN(C(=O)c2cc(-c3cc4c(cc3C(=O)N3Cc5ccccc5C[C@H]3CN3CCOCC3)OCO4)n3c2CCCC3)c2ccc(O)cc2)cccc1[N+](=O)[O-] [Compound 50, N-(4-Hydroxyphenyl)-N-[(2-methyl-3-nitro-phenyl)methyl]-3-[6-[(3S)-3-(morpholinomethyl)-3,4-dihydro-1H-isoquinoline-2-carbonyl]-1,3-benzodioxol-5-yl]-5,6,7,8-tetrahydroindolizine-1-carboxamide] | > 200 | > 50 | > 4000 | > 250 | 2000 to 10000 | > 25000
11 | Cc1cccc(Cl)c1CN(C(=O)c1cc(-c2cc3c(cc2C(=O)N2Cc4ccccc4C[C@H]2CN2CCOCC2)OCO3)n2c1CCCC2)c1ccc(O)cc1 [Compound 34, N-(2-chloro-6-methylbenzyl)-N-(4-hydroxyphenyl)-3-(6-{[(3S)-3-(morpholin-4-ylmethyl)-3,4-dihydroisoquinolin-2(1H)-yl]carbonyl}-1,3-benzodioxol-5-yl)-5,6,7,8-tetrahydroindolizine-1-carboxamide] | > 200 | > 50 | > 4000 | > 250 | ≤ 2000 | > 25000
12 | Cc1cc(C(F)(F)F)ccc1CN(C(=O)c1cc(-c2cc3c(cc2C(=O)N2Cc4ccccc4C[C@H]2CN2CCOCC2)OCO3)n2c1CCCC2)c1ccc(O)cc1 [Compound 37, N-(4-hydroxyphenyl)-N-[2-methyl-4-(trifluoromethyl)benzyl]-3-(6-{[(3S)-3-(morpholin-4-ylmethyl)-3,4-dihydroisoquinolin-2(1H)-yl]carbonyl}-1,3-benzodioxol-5-yl)-5,6,7,8-tetrahydroindolizine-1-carboxamide] | ≤ 100 | 5 to 10 | – | 100 to 250 | 2000 to 10000 | > 25000
